# Values quoted from earlier work in patent US20250345332A1, “APROCITENTAN FOR THE TREATMENT OF HYPERTENSION” (IDORSIA PHARMACEUTICALS LTD, priority 2022, published 2025).
# Legend:
# [1] = tested on: patients with type 2 diabetes and overt diabetic nephropathy; details: in vivo; cited from earlier work
# [2] = tested on: patients with rHT; details: cited from earlier work
# [3] = tested on: subjects having essential hypertension; details: after 8 weeks once daily, at trough, aprocitentan 5, 10, 25, 50 mg groups, lisinopril 20 mg, cited from earlier work
# [4] = tested on: subjects having essential hypertension; details: lisinopril 20 mg, cited from earlier work
smiles,measurement,setting,value
"COc1ccccc1Oc1c(NS(=O)(=O)c2ccc(C)cn2)nc(-c2ccncc2)nc1OC [Avosentan, avosentan]",albumin-to-creatinine ratio (ACR),[1],significantly reduced
COc1cc(OC)nc(O[C@H](C(=O)O)C(OC)(c2ccccc2)c2ccccc2)n1 [darusentan],reduction of ambulatory blood pressure,[2]; 14 weeks,demonstrated efficacy
same,treatment effect on the primary endpoint systolic blood pressure,[2]; 14 weeks,failed to show significant treatment effect
same,fluid retention/edema (most frequent adverse event),[2]; versus 12% in each of the other groups,28%
"NCCCC[C@H](N[C@@H](CCc1ccccc1)C(=O)O)C(=O)N1CCC[C@H]1C(=O)O [lisinopril, reference compound]",mean reduction from baseline in diastolic blood pressure,[3]; per-protocol population,8.4 mmHg
same,systolic blood pressure reductions,[3],12.8 mmHg
same,discontinuation from study treatment due to an adverse event,[4]; aprocitentan 5-50 mg groups,3.7%
same,mean body weight decrease from baseline,[4],0.3 kg
